Source: patent US8552205B2, “Derivatives of 6,7-dihydro-5H-imidazo[1,2-alpha]imidazole-3-carboxylic acid amides” (Boehringer Ingelheim International GmbH, priority 2007, dated 2013)

Biological target: T1, LFA-1 (CD18/CD11a) binding to ICAM-1 (Homo sapiens, UniProt P05107+P20701)
T1 construct: LFA-1 is immunopurified using the TS2/4 antibody from a 20 g pellet of human JY or SKW3 cells; endogenous in cells; sICAM-1 made in house, secreted from transfected CHO DUX cells
Assay: Assay to determine inhibition of LFA-1 binding to ICAM-1
Settings: immunopurified LFA-1 binding to plate-bound sICAM-1; read-out: LFA/ICAM1 Kd
Excerpt: Assay to Determine Inhibition of LFA-1 Binding to ICAM-1
This assay protocol is designed to study the direct antagonism, by a test compound, of the interaction of ICAM-1 with the Leukointegrin CD18/CD11a (LFA-1).
LFA-1 is immunopurified using the TS2/4 antibody from a 20 g pellet of human JY or SKW3 cells, utilizing a protocol previously described (Dustin, M. J.; et al., J. Immunol. 1992, 148, 2654-2660). The LFA-1 is purified from SKW3 lysates by immunoaffinity chromatography on TS2/4 LFA-1 mAb Sepharose and eluted at pH 11.5 in the presence of 2 mM MgCl2 and 1% octylglucoside. After collection and neutralization of fractions from the TS2/4 column, samples are pooled and precleared with Protein G agarose.
A soluble form of ICAM-1 is constructed, expressed, purified and characterized as previously described (Marlin, S.; et al., Nature, 1990, 344, 70-72 and see Arruda, A.; et al., Antimicrob. Agents Chemother. 1992, 36, 1186-1192). Briefly, isoleucine 454 which is located at the putative boundary between domain 5 of the ectodomain and the transmembrane domain, is changed to a stop codon using standard oligonucleotide-directed mutagenesis. This construction yields a molecule identical with the first 453 amino acids of membrane bound ICAM-1. An expression vector is created with a hamster dihydrofolate reductase gene, a neomycin-resistance marker, and the coding region of the sICAM-1 construct described above, along with the promoter, splice signals, and polyadenylation signal of the SV40 early region. The recombinant plasmid is transfected into CHO DUX cells using standard calcium phosphate methods. Cells are passaged in selective media (G418) and colonies secreting sICAM-1 are amplified using methotrexate. sICAM-1 is purified from serum-free media using traditional non-affinity chromatographic techniques, including ion exchange and size exclusion chromatography.
LFA-1 binding to ICAM-1 is monitored by first incubating sICAM-1 at 40 μg/mL in Dulbecco's phosphate buffered saline with calcium and magnesium, additional 2 mM MgCl2 and 0.1 mM PMSF (Diluting Buffer) in a 96-well plate for 30 min at room temperature. Plates are then blocked by the addition of 2% (w/v) bovine serum albumin in Diluting Buffer for 37° C. for 1 h. Blocking solution is removed from wells, and test compounds are diluted and then added followed by the addition of approximately 25 ng of immunoaffinity purified LFA-1. The LFA-1 is incubated in the presence of test compound and ICAM-1 at 37° C. for 1 h. Wells are washed 3 times with Diluting Buffer. The bound LFA-1 is detected by the addition of a polyclonal antibody directed against a peptide corresponding to the CD18 cytoplasmic tail in a 1:100 dilution with Diluting Buffer and 1% BSA and allowed to incubate for 45 min at 37° C. Wells are washed 3 times with Diluting Buffer and the bound polyclonal antibody is detected by the addition of a 1:4000 dilution of horse radish peroxidase conjugated to goat immunoglobulin directed against rabbit immunoglobulin. This reagent is allowed to incubate for 20 min at 37° C., wells are washed as above and the substrate for the horse radish peroxidase is added to each well to develop a quantitative colorimetric signal proportional to the amount of LFA-1 bound to sICAM-1. Soluble ICAM-1 (60 μg/mL) is used as a positive control for inhibition of the LFA-1/ICAM-1 interaction. The lack of the addition of LFA-1 to the binding assay is used as a background control for all samples. A dose-response curve is obtained for all test compounds.

T1 sequence (P20701 26-1170): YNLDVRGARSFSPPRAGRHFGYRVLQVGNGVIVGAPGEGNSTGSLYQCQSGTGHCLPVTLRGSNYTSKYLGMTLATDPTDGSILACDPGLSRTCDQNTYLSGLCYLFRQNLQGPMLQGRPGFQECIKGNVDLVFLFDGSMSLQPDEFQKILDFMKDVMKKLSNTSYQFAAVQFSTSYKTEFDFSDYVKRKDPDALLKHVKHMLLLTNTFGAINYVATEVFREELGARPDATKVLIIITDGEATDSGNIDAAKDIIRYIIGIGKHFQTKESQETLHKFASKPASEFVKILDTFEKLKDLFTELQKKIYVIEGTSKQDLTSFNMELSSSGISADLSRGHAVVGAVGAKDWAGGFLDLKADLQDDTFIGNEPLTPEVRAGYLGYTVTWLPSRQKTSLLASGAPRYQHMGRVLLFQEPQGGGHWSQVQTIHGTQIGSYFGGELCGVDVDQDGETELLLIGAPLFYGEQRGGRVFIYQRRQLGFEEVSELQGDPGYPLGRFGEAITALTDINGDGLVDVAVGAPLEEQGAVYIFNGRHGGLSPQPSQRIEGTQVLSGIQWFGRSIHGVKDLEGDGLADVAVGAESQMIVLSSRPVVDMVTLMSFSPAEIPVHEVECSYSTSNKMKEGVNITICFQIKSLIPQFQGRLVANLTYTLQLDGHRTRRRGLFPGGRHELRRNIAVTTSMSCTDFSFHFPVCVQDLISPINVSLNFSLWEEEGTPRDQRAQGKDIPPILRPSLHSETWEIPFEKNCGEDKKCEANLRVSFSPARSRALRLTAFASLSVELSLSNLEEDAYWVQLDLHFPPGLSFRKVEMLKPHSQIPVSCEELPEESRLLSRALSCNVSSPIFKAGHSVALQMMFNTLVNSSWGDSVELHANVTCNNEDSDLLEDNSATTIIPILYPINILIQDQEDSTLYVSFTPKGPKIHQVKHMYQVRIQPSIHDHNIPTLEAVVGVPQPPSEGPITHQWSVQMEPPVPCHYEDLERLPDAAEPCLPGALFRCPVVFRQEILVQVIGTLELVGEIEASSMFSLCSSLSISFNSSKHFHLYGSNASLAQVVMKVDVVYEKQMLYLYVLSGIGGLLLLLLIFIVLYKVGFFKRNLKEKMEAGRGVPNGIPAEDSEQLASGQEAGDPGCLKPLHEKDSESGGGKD
T1 sequence (P05107 23-769): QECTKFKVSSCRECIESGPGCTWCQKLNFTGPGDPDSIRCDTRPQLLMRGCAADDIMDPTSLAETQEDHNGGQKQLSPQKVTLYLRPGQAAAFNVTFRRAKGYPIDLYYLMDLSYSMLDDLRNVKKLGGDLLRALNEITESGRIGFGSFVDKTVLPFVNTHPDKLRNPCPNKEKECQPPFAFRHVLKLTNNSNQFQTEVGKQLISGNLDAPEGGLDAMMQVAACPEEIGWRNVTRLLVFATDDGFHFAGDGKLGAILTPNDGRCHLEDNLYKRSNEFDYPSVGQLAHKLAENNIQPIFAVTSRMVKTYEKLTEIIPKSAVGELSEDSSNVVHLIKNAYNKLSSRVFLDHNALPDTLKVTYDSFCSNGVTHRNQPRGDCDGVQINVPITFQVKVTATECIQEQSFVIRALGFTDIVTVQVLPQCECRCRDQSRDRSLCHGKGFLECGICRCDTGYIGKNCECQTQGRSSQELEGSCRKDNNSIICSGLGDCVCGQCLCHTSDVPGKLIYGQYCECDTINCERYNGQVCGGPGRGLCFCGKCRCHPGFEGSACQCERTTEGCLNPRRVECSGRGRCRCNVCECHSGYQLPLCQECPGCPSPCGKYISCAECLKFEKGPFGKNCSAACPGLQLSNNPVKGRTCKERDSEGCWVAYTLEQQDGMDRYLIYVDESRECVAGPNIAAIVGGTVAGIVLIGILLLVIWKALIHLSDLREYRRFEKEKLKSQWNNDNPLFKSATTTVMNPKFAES

Row | SMILES | Kd [nM]
1 | C[C@H](NC(=O)c1cnc2n1[C@](C)(Cc1ccc(C#N)cc1)C(=O)N2c1cc(Cl)cc(Cl)c1)C(=O)N[C@H](C)c1ccccn1 [Compound 2] | 8.9
2 | C[C@@]1(Cc2ccc(C#N)cc2)C(=O)N(c2cc(Cl)cc(Cl)c2)c2ncc(C(=O)NC3(C(=O)N4CC[C@@H](c5noc(=O)[nH]5)C4)CC3)n21 [Compound 9] | 4.6
3 | CC(=O)N[C@H]1CCN(C(=O)C2(NC(=O)c3cnc4n3[C@](C)(Cc3ccc(C#N)cc3)C(=O)N4c3cc(Cl)cc(Cl)c3)CC2)C1 [Compound 12] | 5.4
4 | C[C@H](NC(=O)c1cnc2n1[C@](C)(Cc1ccc(C#N)cc1)C(=O)N2c1cc(Cl)cc(Cl)c1)C(=O)N1CCC[C@@H](C(N)=O)C1 [Compound 13] | 2.4
5 | C[C@H](NC(=O)c1cnc2n1[C@](C)(Cc1ccc(C#N)cc1)C(=O)N2c1cc(Cl)c(F)c(Cl)c1)C(=O)NC1(c2ccccn2)CC1 [Compound 55] | 10
6 | C[C@@]1(Cc2ccc(C#N)cc2)C(=O)N(c2cc(Cl)c(F)c(Cl)c2)c2ncc(C(=O)NC3(C(=O)NC4(c5nccs5)CC4)CC3)n21 [Compound 60] | 13
7 | C[C@@]1(Cc2ccc(C#N)cc2)C(=O)N(c2cc(Cl)c(F)c(Cl)c2)c2ncc(C(=O)NC3(C(=O)NC4(c5nnc[nH]5)CC4)CC3)n21 [Compound 62] | 7
8 | C[C@@]1(Cc2ccc(C#N)cc2)C(=O)N(c2cc(Cl)cc(Cl)c2)c2ncc(C(=O)NC3(C(=O)NC4(C(N)=O)CC4)CC3)n21 [Compound 72] | 8.4
9 | C[C@@]1(Cc2ccc(C#N)cc2)C(=O)N(c2cc(Cl)cc(Cl)c2)c2ncc(C(=O)NC3(C(=O)N[C@@H]4CC[C@H](C(N)=O)C4)CC3)n21 [Compound 105] | 24
10 | C[C@@H](NC(=O)c1cnc2n1[C@](C)(Cc1ccc(C#N)cc1)C(=O)N2c1cc(Cl)cc(Cl)c1)C(=O)NC1(C(=O)O)CC1 [Compound 107] | 28
11 | COC(=O)[C@H]1CC[C@@H](NC(=O)C2(NC(=O)c3cnc4n3[C@](C)(Cc3ccc(C#N)cc3)C(=O)N4c3cc(Cl)cc(Cl)c3)CC2)C1 [Compound 109] | 28
12 | C[C@H](NC(=O)c1cnc2n1[C@](C)(Cc1ccc(C#N)cc1)C(=O)N2c1cc(Cl)cc(Cl)c1)C(=O)NC1CCC[C@H]1C(N)=O (stereo partly shown) [Compound 114] | 32
13 | C[C@@H](NC(=O)c1cnc2n1[C@](C)(Cc1ccc(C#N)cc1)C(=O)N2c1cc(Cl)cc(Cl)c1)C(=O)Nc1ccnn1C [Compound 129] | 45
14 | CC(=O)N1CCC(NC(=O)C2(NC(=O)c3cnc4n3[C@](C)(Cc3ccc(C#N)cc3)C(=O)N4c3cc(Cl)cc(Cl)c3)CC2)CC1 [Compound 143] | 71
15 | C[C@@]1(Cc2ccc(C#N)cc2)C(=O)N(c2cc(Cl)cc(Cl)c2)c2ncc(C(=O)NC3(C(=O)N4CC[C@@H](O)C4)CC3)n21 [Compound 160] | 5.9
16 | C[C@@]1(Cc2ccc(C#N)cc2)C(=O)N(c2cc(Cl)cc(Cl)c2)c2ncc(C(=O)NC3(C(=O)N4CCC(S(C)(=O)=O)C4)CC3)n21 (stereo partly shown) [Compound 185] | 24
17 | CCN(C(C)=O)C1CCN(C(=O)C2(NC(=O)c3cnc4n3[C@](C)(Cc3ccc(OC(F)(F)F)cc3)C(=O)N4c3cc(Cl)cc(Cl)c3)CC2)C1 (stereo partly shown) [Compound 187] | 22
18 | CC(=O)NC1CCCN(C(=O)C2(NC(=O)c3cnc4n3[C@](C)(Cc3ccc(C#N)cc3)C(=O)N4c3cc(Cl)cc(Cl)c3)CC2)C1 (stereo partly shown) [Compound 201] | 34
19 | C[C@H](NC(=O)c1cnc2n1[C@](C)(Cc1ccc(C#N)cc1)C(=O)N2c1cc(Cl)cc(Cl)c1)C(=O)N1CCC[C@@H]1CO [Compound 215] | 39
20 | C[C@H](NC(=O)c1cnc2n1[C@](C)(Cc1ccc(C#N)cc1)C(=O)N2c1cc(Cl)cc(Cl)c1)C(=O)NCCN1CCOCC1 [Compound 259] | 120
21 | C[C@@H](NC(=O)c1cnc2n1[C@](C)(Cc1ccc(C#N)cc1)C(=O)N2c1cc(Cl)cc(Cl)c1)C(=O)Nc1nccs1 [Compound 286] | 100

Tested on: IL-2 production in human whole blood stimulated with staphylococcal enterotoxin B
Assay: not given
Format: cell-based
Settings: not given

Row | SMILES | WB [×]
22 | C[C@@]1(Cc2ccc(C#N)cc2)C(=O)N(c2cc(Cl)cc(Cl)c2)c2ncc(C(=O)NC3(C(=O)NC4(c5nnc(C6CC6)[nH]5)CC4)CC3)n21 [BI00659245, (R)-5-(4-Cyano-benzyl)-7-(3,5-dichloro-phenyl)-5-methyl-6-oxo-6,7-dihydro-5H-imidazo[1,2-a]imidazole-3-carboxylic acid {1-[1-(5-cyclopropyl-4H-1,2,4-triazol-3-yl)-cyclopropylcarbamoyl]-cyclopropyl}-amide] | 12
